Here are results for two molecules from US5872150A, “Treatment of prostate disease with a nonsteroidal anti-androgenic compound” (Merck & Co., Inc., priority 1997, dated 1999).

“Also recorded” adds a separate entry of the source.

The subject of test [1] is probasin luciferase reporter gene. Description: Ligand dependent transcription assay, CV1 cells with probasin reporter gene and control plasmid, no AR (pPBluc). The test is classed as cell-based, rat. The protocol: Ligand dependent transcription assays were performed as described in Schnmidt et al. "Identification of a new member of the steroid hormone receptor superfamily that is activated by a peroxisome proliferator and fatty acids," Mol. Endocrinol. […] A luciferase cDNA expressed under the control of the promoter region of the probasin gene that confers androgen receptor dependent transcription was used as a reporter gene, see Rennie et al. "Characterization of two cis-acting DNA elements involved in the androgen regulation of the probasin gene" Mol Endocrinol. […] Transient transfection of CV1 cells was performed by plating cells (1.5×10^5 per mL) into 12 well dishes in phenol red-free medium supplemented with 10% fetal calf serum treated with activated charcoal to remove endogenous steroids. Cells were then transfected the following day by addition of a calcium phosphate precipitate of plasmid DNA. Cells were then washed with fresh media after an overnight incubation and ligands were added. Cell extracts were prepared after forty eight hours and assayed for luciferase enzyme activity using the Luciferase Assay System (Promega). Each transfection was performed in triplicate and the […] of each sample was measured using the AutoChemiluminometer (Berthold).
Background: In a reporter assay the amount or activity of a reporter protein is the signal.

In another test the test system is DDT1 cells. Description: DDT1 Assay: androgen (testosterone) dependent growth of DDT1 cells, MTS proliferation. The test is classed as cell-based, Syrian hamster. The protocol:
Cells were plated in a 96 well plate at 2,000 cells/well in DFITS+0.1% fetal calf serum. […] Cell growth data were normalized to the greatest number of cells and error bars represent +/- one standard error of the mean (sem).
Media was charged every 48 hours. Cells were plated at ~2,000/well in 96-well plates or ~6,000 cells/cm^2 in DMEM: F12 (GIBCO BRL) nutrient mixture (1:)+ITS™ (insulin, transferrin, selenious acid) (Collaborative Biomedical Products/Becton Dickinson Labware) (final concentrations 5 μg/mL insulin, 5 μ/mL transferrin, 5 ng/mL selenious acid) (DFITS media)+0.1% bovine calf serum (Hyclon®, BCS defined, iron supplemented).
After 24 hours, the cells were washed with the same media except without added serum and replaced with fresh serum-free DFITS medium (day 0).
In a typical experiment, cells were plated in sets of 12 in the presence of either a mock ethanol control (0.1-0.2% total volume) or N-(4-chlorophenyl)-(Z,Z)-2,3-bis(cyclopropylmethylene) cyclopentane carboxamide dissolved in 100% ethanol as a 1000X concentrated stock solution. Cell growth was then measured using a CellTiter96™ Non-Radioactive Cell Proliferation Assay (Promega Corporation) according to the manufacturer's protocol using a Bio Kinetics EL 340 microplate reader (BioTek Instruments, Inc.). 3-(4,5-dimethylthiazol-2-yl)-5-(3-carboxyl methoxyphenyl)-2-(4-sulfophenyl)-2H-tetrazolium (MTS) was diluted into media at a final concentration of 333 μg/mL and penazine methosulfate (PMS) was used at a final concentration of 25 μM with a total volume per well of 100 μL. Plates were then incubated for one hour at 37° C. in a humidified 5% CO2 atmosphere.

Test [2] addresses T1, androgen receptor (Homo sapiens, UniProt P10275).
T1 sequence (P10275 1-920): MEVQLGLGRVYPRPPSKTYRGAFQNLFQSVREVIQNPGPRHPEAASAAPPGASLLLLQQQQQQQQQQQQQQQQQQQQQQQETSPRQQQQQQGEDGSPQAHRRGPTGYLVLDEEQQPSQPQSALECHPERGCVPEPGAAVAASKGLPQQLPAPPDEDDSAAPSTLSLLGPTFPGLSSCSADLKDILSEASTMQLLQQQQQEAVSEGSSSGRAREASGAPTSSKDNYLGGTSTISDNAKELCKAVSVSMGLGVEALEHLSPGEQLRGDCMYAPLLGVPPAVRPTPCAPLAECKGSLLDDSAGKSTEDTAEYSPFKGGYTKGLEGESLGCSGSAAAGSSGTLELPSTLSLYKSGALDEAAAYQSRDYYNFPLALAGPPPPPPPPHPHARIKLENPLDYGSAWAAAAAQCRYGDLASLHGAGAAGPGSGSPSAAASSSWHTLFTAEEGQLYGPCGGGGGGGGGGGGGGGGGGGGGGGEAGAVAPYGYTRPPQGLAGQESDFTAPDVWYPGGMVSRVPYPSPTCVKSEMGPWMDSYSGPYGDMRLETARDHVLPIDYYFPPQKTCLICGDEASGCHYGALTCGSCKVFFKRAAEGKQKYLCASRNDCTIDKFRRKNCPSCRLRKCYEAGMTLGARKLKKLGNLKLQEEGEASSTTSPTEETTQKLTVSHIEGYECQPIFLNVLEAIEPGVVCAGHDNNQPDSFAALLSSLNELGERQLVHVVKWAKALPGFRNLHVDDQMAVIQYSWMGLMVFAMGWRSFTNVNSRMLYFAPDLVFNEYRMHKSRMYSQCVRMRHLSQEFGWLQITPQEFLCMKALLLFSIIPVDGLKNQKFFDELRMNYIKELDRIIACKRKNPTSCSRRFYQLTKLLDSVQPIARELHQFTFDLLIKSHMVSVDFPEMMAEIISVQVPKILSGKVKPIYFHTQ
Description: Binding to the human androgen receptor (hAR), displacement of [3H]-DHT, stable CHO transfectants. Set-up: expressed in transfected cells; cytosol, 100,000×g supernatant. The following applies: stable transfectants of CHO cells. The protocol:
Binding to the Androgen Receptor
All samples were prepared in duplicate. […] Free steroids were removed by addition of dextran-coated charcoal followed by centrifugation at 3,000×g for fifteen minutes at 4° C.
47: 1080-1088 (1995) except that stable transfectants of CHO cells were employed (gift from Prof. Michael McPhaul Southwestern Medical Center, Dallas, Tex.) that typically express 30-80 fmoles receptor/mg soluble protein.
(In general: Displacement assays read how much labelled ligand stays bound in the presence of the test substance.)

The target of test [3] is T1, androgen receptor. Description: Ligand dependent transcription assay, CV1 cells co-transfected with AR and probasin luciferase reporter (pPBluc + AR). The test is classed as cell-based. The arrangement: expressed in transfected cells; host or cells: CV1 cells, transient co-transfection of pSGAR with the probasin-luciferase reporter pPBluc. Here is the method: FIG. 2 is a graph showing the effect of N-(4-chlorophenyl)-(Z,Z)-2,3-bis(cyclopropyl-methylene)cyclopentane carboxamide on the activation of the androgen receptor in CV1 cells, as described in Example 4.
Ligand dependent transcription assays were performed as described in Schnmidt et al. "Identification of a new member of the steroid hormone receptor superfamily that is activated by a peroxisome proliferator and fatty acids," Mol. Endocrinol. 6:1634-1641 (1992). A luciferase cDNA expressed under the control of the promoter region of the probasin gene that confers androgen receptor dependent transcription was used as a reporter gene, see Rennie et al. "Characterization of two cis-acting DNA elements involved in the androgen regulation of the probasin gene" Mol Endocrinol. 7:23-36 (1993). The promoter region, -426 to +40 of the rat probasin gene was amplified by polymerase chain reaction (PCR) and inserted upstream of the luciferase cDNA of pGL3 Basic plasmid (Promega). The expression vector pSGAR that expressed the normal human AR was used as a source of receptor, see, Chang et al. "Molecular cloning of human and rat complementary DNA encoding androgen receptors," Science 240:324-326 (1988). Transient transfection of CV1 cells was performed by plating cells (1.5×10^5 per mL) into 12 well dishes in phenol red-free medium supplemented with 10% fetal calf serum treated with activated charcoal to remove endogenous steroids. Cells were then transfected the following day by addition of a calcium phosphate precipitate of plasmid DNA. Cells were then washed with fresh media after an overnight incubation and ligands were added. Cell extracts were prepared after forty eight hours and assayed for luciferase enzyme activity using the Luciferase Assay System (Promega). Each transfection was performed in triplicate and the […] of each sample was measured using the AutoChemiluminometer (Berthold).

With `C[C@]12CCC(=O)C[C@@H]1CC[C@@H]1[C@@H]2CC[C@]2(C)[C@@H](O)CC[C@@H]12` [DHT, 5α-dihydrotestosterone], the “pPBluc, Light Units ± std” value in test [1] (DHT 10^-7 M) was 3300 ± 1100 Light Units; in test [1] (DHT 10^-9 M) it was 3000 ± 300 Light Units.
On to `O=C(Nc1ccc(Cl)cc1)C1CCC(=C/C2CC2)/C1=C\C1CC1` (stereo not shown) [N-(4-chlorophenyl)-(Z,Z)-2,3-bis(cyclopropylmethylene)cyclopentane carboxamide], for which, in the test with DDT1 cells, the “antagonism of the action of testosterone on DDT1 cells” value is given as “antagonizes the action of testosterone on DDT1 cells” and the “inhibition of testosterone-induced DDT1 cell growth, comparison with hydroxyflutamide” value is “inhibits testosterone-induced DDT1 cell growth in a manner similar to that of hydroxyflutamide”. In addition, the “effect on testosterone-induced cell proliferation” value in the test with DDT1 cells (compound at 10 μM with 10 nM testosterone) is on record as “reduced cell proliferation to levels close to that of the ethanol mock control”. The “effect on cell proliferation, compound alone” value in the test with DDT1 cells (without testosterone, serum-free medium) is on record as “little or no effect on cell growth by itself; also recorded: little or no effect on cell proliferation”. The “blocking of the binding of 3H-DHT” value at androgen receptor [2] was “blocks the binding of ^3 H-DHT to the human androgen receptor expressed in stable transfectants of CHO cells at doses comparable to those that antagonize testosterone in DDT1 cells”. Further, the “inhibition of transactivation mediated by DHT” value at androgen receptor [3] (CV1 cells, 10 nM DHT) is listed as “inhibited the transactivation mediated by DHT in a dose dependent manner”. Besides, on androgen receptor [3] (CV1 cells, without DHT), the “luciferase expression from the pPBluc reporter gene, compound alone” value is on record as “did not affect luciferase expression”. The IC50 on androgen receptor [3] (read-out: Fifty percent inhibition of transactivation) was roughly 2 µM.
